Results taken from PubChem BioAssay (NCI).
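Five concentrations, 48 hours, 96-well plates. TGI denotes the concentration required for complete inhibition of growth.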

Assays:
Test in all cases: inhibition of tumour cell growth, NCI panel, 48 h
RPMI-8226 leukemia = tested on: RPMI-8226 leukemia
A549 NSCLC = tested on: A549 NSCLC
M14 melanoma = tested on: M14 melanoma
XF 498 CNS = tested on: XF 498 CNS
NCI-H23 lung = tested on: NCI-H23 lung
KM12 colon = tested on: KM12 colon
HOP-92 NSCLC = tested on: HOP-92 NSCLC
DLD-1 colon = tested on: DLD-1 colon
ACHN renal = tested on: ACHN renal
HOP-18 NSCLC = tested on: HOP-18 NSCLC
MOLT-4 leukemia = tested on: MOLT-4 leukemia
SK-MEL-5 melanoma = tested on: SK-MEL-5 melanoma
OVCAR-8 ovarian = tested on: OVCAR-8 ovarian
U251 CNS = tested on: U251 CNS
M19-MEL melanoma = tested on: M19-MEL melanoma
SN12C renal = tested on: SN12C renal
RXF 393 renal = tested on: RXF 393 renal
SNB-75 CNS = tested on: SNB-75 CNS
TK-10 renal = tested on: TK-10 renal
KM20L2 colon = tested on: KM20L2 colon
UACC-62 melanoma = tested on: UACC-62 melanoma
NCI-H226 lung = tested on: NCI-H226 lung
SK-MEL-28 melanoma = tested on: SK-MEL-28 melanoma
COLO 205 colon = tested on: COLO 205 colon
LXFL 529 NSCLC = tested on: LXFL 529 NSCLC
K-562 leukemia = tested on: K-562 leukemia
OVCAR-4 ovarian = tested on: OVCAR-4 ovarian
SF-539 CNS = tested on: SF-539 CNS
IGROV1 ovarian = tested on: IGROV1 ovarian
UO-31 renal = tested on: UO-31 renal
A498 renal = tested on: A498 renal
HCT-116 colon = tested on: HCT-116 colon
EKVX NSCLC = tested on: EKVX NSCLC
NCI-H522 lung = tested on: NCI-H522 lung
SW-620 colon = tested on: SW-620 colon
SNB-78 CNS = tested on: SNB-78 CNS
SF-295 CNS = tested on: SF-295 CNS
NCI-H460 lung = tested on: NCI-H460 lung
DMS 273 small cell lung = tested on: DMS 273 small cell lung
HCT-15 colon = tested on: HCT-15 colon
SF-268 CNS = tested on: SF-268 CNS
CAKI-1 renal = tested on: CAKI-1 renal
LOX IMVI melanoma = tested on: LOX IMVI melanoma
HT29 colon = tested on: HT29 colon
DMS 114 small cell lung = tested on: DMS 114 small cell lung
OVCAR-5 ovarian = tested on: OVCAR-5 ovarian
CCRF-CEM leukemia = tested on: CCRF-CEM leukemia
HL-60(TB) leukemia = tested on: HL-60(TB) leukemia
SNB-19 CNS = tested on: SNB-19 CNS
SK-OV-3 ovarian = tested on: SK-OV-3 ovarian
OVCAR-3 ovarian = tested on: OVCAR-3 ovarian
UACC-257 melanoma = tested on: UACC-257 melanoma
786-0 renal = tested on: 786-0 renal
MALME-3M melanoma = tested on: MALME-3M melanoma
HOP-62 NSCLC = tested on: HOP-62 NSCLC
SK-MEL-2 melanoma = tested on: SK-MEL-2 melanoma
HCC-2998 colon = tested on: HCC-2998 colon
SR leukemia = tested on: SR leukemia

Measured: TGI

COC(=O)C1CCC(=O)C(Sc2ccccc2)C1 (stereo not drawn)
99 µM: UO-31 renal
80 µM: CCRF-CEM leukemia
> 100 µM: RPMI-8226 leukemia | A549 NSCLC | M14 melanoma | XF 498 CNS | NCI-H23 lung | KM12 colon | HOP-92 NSCLC | DLD-1 colon | ACHN renal | HOP-18 NSCLC | MOLT-4 leukemia | SK-MEL-5 melanoma | OVCAR-8 ovarian | U251 CNS | M19-MEL melanoma | SN12C renal | RXF 393 renal | TK-10 renal | KM20L2 colon | UACC-62 melanoma | NCI-H226 lung | SK-MEL-28 melanoma | COLO 205 colon | LXFL 529 NSCLC | K-562 leukemia | OVCAR-4 ovarian | SF-539 CNS | IGROV1 ovarian | A498 renal | HCT-116 colon | EKVX NSCLC | NCI-H522 lung | SW-620 colon | SNB-78 CNS | SF-295 CNS | NCI-H460 lung | DMS 273 small cell lung | HCT-15 colon | SF-268 CNS | CAKI-1 renal | LOX IMVI melanoma | HT29 colon | DMS 114 small cell lung | OVCAR-5 ovarian | HL-60(TB) leukemia | SNB-19 CNS | SK-OV-3 ovarian | OVCAR-3 ovarian | UACC-257 melanoma
96.4 µM: SNB-75 CNS

COc1cc(/C=C/c2cccnc2)cc(OC)c1OC
> 100 µM: 786-0 renal | RPMI-8226 leukemia | A549 NSCLC | M14 melanoma | XF 498 CNS | NCI-H23 lung | KM12 colon | HOP-92 NSCLC | DLD-1 colon | ACHN renal | HOP-18 NSCLC | MOLT-4 leukemia | SK-MEL-5 melanoma | OVCAR-8 ovarian | U251 CNS | M19-MEL melanoma | SN12C renal | RXF 393 renal | SNB-75 CNS | TK-10 renal | KM20L2 colon | UACC-62 melanoma | NCI-H226 lung | MALME-3M melanoma | SK-MEL-28 melanoma | COLO 205 colon | LXFL 529 NSCLC | K-562 leukemia | OVCAR-4 ovarian | SF-539 CNS | IGROV1 ovarian | UO-31 renal | A498 renal | HCT-116 colon | EKVX NSCLC | NCI-H522 lung | SW-620 colon | SNB-78 CNS | SF-295 CNS | NCI-H460 lung | DMS 273 small cell lung | HCT-15 colon | SF-268 CNS | CAKI-1 renal | LOX IMVI melanoma | HT29 colon | HOP-62 NSCLC | DMS 114 small cell lung | OVCAR-5 ovarian | CCRF-CEM leukemia | HL-60(TB) leukemia | SNB-19 CNS | OVCAR-3 ovarian | UACC-257 melanoma

CN(C(=O)c1cccs1)C(=S)N1CCN(c2ccccn2)CC1
> 100 µM: 786-0 renal | RPMI-8226 leukemia | A549 NSCLC | M14 melanoma | XF 498 CNS | NCI-H23 lung | KM12 colon | HOP-92 NSCLC | DLD-1 colon | ACHN renal | HOP-18 NSCLC | MOLT-4 leukemia | SK-MEL-5 melanoma | OVCAR-8 ovarian | U251 CNS | M19-MEL melanoma | SN12C renal | RXF 393 renal | SNB-75 CNS | TK-10 renal | KM20L2 colon | UACC-62 melanoma | NCI-H226 lung | MALME-3M melanoma | SK-MEL-28 melanoma | COLO 205 colon | LXFL 529 NSCLC | K-562 leukemia | OVCAR-4 ovarian | SF-539 CNS | IGROV1 ovarian | UO-31 renal | HCT-116 colon | NCI-H522 lung | SW-620 colon | SNB-78 CNS | SF-295 CNS | NCI-H460 lung | DMS 273 small cell lung | HCT-15 colon | SF-268 CNS | CAKI-1 renal | LOX IMVI melanoma | HT29 colon | HOP-62 NSCLC | SK-MEL-2 melanoma | DMS 114 small cell lung | OVCAR-5 ovarian | CCRF-CEM leukemia | HL-60(TB) leukemia | SNB-19 CNS | SK-OV-3 ovarian | OVCAR-3 ovarian | UACC-257 melanoma

Cc1nc2nnnn2c2c1C(=O)Nc1ccccc1N2
> 100 µM: 786-0 renal | RPMI-8226 leukemia | A549 NSCLC | M14 melanoma | XF 498 CNS | NCI-H23 lung | HCC-2998 colon | KM12 colon | HOP-92 NSCLC | DLD-1 colon | ACHN renal | HOP-18 NSCLC | MOLT-4 leukemia | OVCAR-8 ovarian | U251 CNS | M19-MEL melanoma | SN12C renal | RXF 393 renal | SNB-75 CNS | TK-10 renal | KM20L2 colon | UACC-62 melanoma | NCI-H226 lung | MALME-3M melanoma | SK-MEL-28 melanoma | COLO 205 colon | LXFL 529 NSCLC | K-562 leukemia | SF-539 CNS | IGROV1 ovarian | UO-31 renal | HCT-116 colon | EKVX NSCLC | NCI-H522 lung | SW-620 colon | SNB-78 CNS | SF-295 CNS | NCI-H460 lung | DMS 273 small cell lung | SF-268 CNS | LOX IMVI melanoma | HT29 colon | HOP-62 NSCLC | SK-MEL-2 melanoma | DMS 114 small cell lung | CCRF-CEM leukemia | HL-60(TB) leukemia | SNB-19 CNS | SK-OV-3 ovarian | SR leukemia | OVCAR-3 ovarian | UACC-257 melanoma

CCC(C)NC1=C(NC(C)=O)C(=O)c2ccccc2C1=O (stereo not drawn)
> 75 µM: A549 NSCLC | M14 melanoma | XF 498 CNS | NCI-H23 lung | HCC-2998 colon | KM12 colon | HOP-92 NSCLC | DLD-1 colon | ACHN renal | HOP-18 NSCLC | MOLT-4 leukemia | SK-MEL-5 melanoma | OVCAR-8 ovarian | U251 CNS | M19-MEL melanoma | SN12C renal | RXF 393 renal | SNB-75 CNS | TK-10 renal | KM20L2 colon | UACC-62 melanoma | NCI-H226 lung | MALME-3M melanoma | SK-MEL-28 melanoma | COLO 205 colon | LXFL 529 NSCLC | K-562 leukemia | OVCAR-4 ovarian | SF-539 CNS | IGROV1 ovarian | UO-31 renal | A498 renal | HCT-116 colon | EKVX NSCLC | SW-620 colon | SNB-78 CNS | SF-295 CNS | NCI-H460 lung | DMS 273 small cell lung | HCT-15 colon | SF-268 CNS | CAKI-1 renal | HT29 colon | HOP-62 NSCLC | SK-MEL-2 melanoma | DMS 114 small cell lung | OVCAR-5 ovarian | CCRF-CEM leukemia | SNB-19 CNS | SK-OV-3 ovarian | OVCAR-3 ovarian | UACC-257 melanoma
> 7.5 µM: 786-0 renal
40 µM: LOX IMVI melanoma
43.1 µM: HL-60(TB) leukemia
37.9 µM: RPMI-8226 leukemia
